Test results: patent US11135233B2, “Methods for preventing or mitigating acute allergic responses using human milk oligosaccharides” (Abbott Laboratories, priority 2013, dated 2021)

Assays:
[1] = system: skin mast cell response in sensitized mice; test: Passive cutaneous anaphylaxis (PCA), skin mast cell response, Evans blue dye in ear pinnae; format: in vivo; details: oral gavage 1 mg per mouse daily for 5 days; anti-DNP IgE i.d., DNP-HSA i.v.; FIG. 3
Experimental: The ability of HMOs to attenuate skin mast cell responses, as measured by the PCA response, was determined in sensitized mice fed 2′-FL, phosphate buffered saline (PBS), lactose, or 6′-SL by detecting the level of dye in ear pinnae indicative of the PCA response.
Mice were treated with 2′-FL, 6′-SL, lactose or PBS by oral gavage (1 mg per mouse) daily for 5 days. On day 4 mice were sensitized by intradermal (i.d.) injection of anti-DNP IgE (10 ng in […] saline) into the right ear pinnae while the left ear was injected with saline alone. Twenty-four hours later, DNP-HSA (10 mg/kg) together with Evans blue (100 mg/kg) was injected intravenously (i.v.). 1 hour following i.v. injection mice were euthanized and ear pinnae collected. Evans blue dye was extracted by incubating the skin samples in DMSO for 24 h at 37° C., and measuring the optical density (O.D.) at 650 nm. Data is presented as the difference in O.D. between the control (left) and sensitized (right) ear.

OVA-sensitized mice [2] = test: OVA-induced food allergy model: rectal temperature after final antigen challenge; format: in vivo; details: 200 ul of 5 mg/ml in PBS daily oral gavage; 1 hour following final OVA challenge; versus untreated or lactose treated; FIG. 5A/5B
Experimental: (§1) The ability of HMOs to attenuate the gastrointestinal mast cell response was determined by measuring the amount of diarrhea, change in body temperature, and change in mouse mast cell protease-1 (mMCP-1) levels in HMO treated mice relative to untreated and lactose treated control mice.
(§2) The OVA-induced food allergy model was modified from Yamaki and Yoshino (Allergy. 2012; 67:1259-70). Mice were sensitized with 50 μg of OVA (Sigma, St. Louis, Mo.) and 2 mg of alum (Sigma, St. Louis, Mo.) in 200 μl of Phosphate Saline Buffer (PBS) on day 0 and 14. HMO (200 ul of 5 mg/ml in PBS) treatments (2′-FL or 6′-SL) were administrated daily via oral gavage from day 27 to day 49. Mice were orally challenged with 50 μg of OVA every 3 days (Days: 28, 31, 34, 37, 40, 43, 46 and 49). On challenge days treatments were given 1 hour prior to OVA challenge. On day 49, serum, spleen and intestinal samples, were obtained. Non-sensitized PBS challenged mice served as negative controls.
Rectal temperature was monitored for 1 hour following the final antigen challenge.

[3] = system: bone marrow mast cells (BMMC); test: In vitro mast cell degranulation (β-hexosaminidase release) in sensitized BMMC exposed to HMO; format: cell-based, Balb/c mice; details: anti-DNP IgE sensitized BMMC, HMO at a range of concentrations 30 min prior to DNP-HSA activation; FIG. 1A/1B
Experimental: The ability of HMOs to attenuate mast cell degranulation was tested by exposing sensitized bone marrow mast cells (BMMC) to either 2′-FL or 6′-SL.
BMMC from female Balb/c mice were obtained by culturing the bone marrow cells in enriched RPMI-1640 medium with 10% pokeweed mitogen-stimulated spleen as a source of mast cell growth factors for 3 weeks. The cells were kept at a concentration of 0.2×10^5 cells/ml in a 5% CO2, 37° C. environment, where the medium was changed weekly. BMMC were used for experiments after 3-4 weeks of culture (>95% mast cells). BMMC were sensitized with 1 ug/ml monoclonal anti-dinitrophenyl (DNP) IgE clone and seeded into 96-well plates at a final concentration of 1×10^6 cells/ml. […] Cell supernatants were harvested 30 min after DNP-HSA stimulation and stored at −20° C. until analyzed. […] Results are expressed as a percentage of total β-hexosaminidase. […]
This assay was conducted to assess in-vitro antigen-induced degranulation of mast cells. […] The release of β-hexosaminidase from mast cells was measured from the supernatant. […] The reaction was stopped with 100 μl citrate buffer pH 4.5 and read by using CytoFluor 2350 fluorescent spectrophotometer at 450 nm (excitation 356 nm). B-hexosaminidase release was presented as a percentage of the total B-hexosaminidase release determined by cell lysis with 1×triton-X.

[4] = system: mouse mast cell protease-1 (mMCP-1); test: OVA-induced food allergy model: serum mMCP-1 concentration; format: in vivo, mice; details: 200 ul of 5 mg/ml in PBS daily oral gavage; day 49; versus untreated and lactose treated OVA-sensitized controls; FIG. 6
Experimental: as §1, §2
Following body temperature measurements, mice were euthanized and serum mMCP-1 concentration was determined.

OVA-sensitized mice [5] = test: OVA-induced food allergy model: diarrhea score; format: in vivo; details: 200 ul of 5 mg/ml in PBS daily oral gavage day 27 to 49; versus untreated or lactose treated OVA-sensitized mice; FIG. 4A/4B
Experimental: as §1, §2
Diarrhea symptoms were scored by visually monitoring mice for 60 minutes after challenge as follows: 0, normal stools; 1, a few wet an unformed stools; 2, a number of wet an unformed stools with moderate perianal staining of the coat; 3, severe, watery stool with severe perianal staining of the coat.

## OC[C@H]1O[C@@H](O[C@H]2[C@H](O)[C@@H](O)C(O)O[C@@H]2CO)[C@H](O)[C@@H](O)[C@H]1O (stereo partly drawn) [lactose, reference compound]
[1]
  difference in Evans blue dye (O.D. at 650 nm) between control (left) and sensitized (right) ear: greater difference in dye detected

## CC(=O)N[C@H]1[C@H]([C@H](O)[C@H](O)CO)O[C@@](OC[C@H]2O[C@@H](O[C@H]3[C@H](O)[C@@H](O)[C@H](O)O[C@@H]3CO)[C@H](O)[C@@H](O)[C@H]2O)(C(=O)O)C[C@@H]1O [6′-SL, 6′-sialyllactose]
OVA-sensitized mice [2]
  decline in rectal temperature: but not 6′-SL, Mitigates the Decline in Rectal Temperature
[3]
  β-hexosaminidase (β-Hex) activity relative to controls (percentage of total β-hexosaminidase): significant decrease
[1]
  difference in Evans blue dye (O.D. at 650 nm) between control (left) and sensitized (right) ear: greater difference in dye detected between right and left ears in PBS and lactose-treated mice than in mice treated with 2′-FL or 6′-SL
[4]
  serum mMCP-1 levels: but not 6′-SL, produced a significant decrease
OVA-sensitized mice [5]
  stool (diarrhea) score: but not 6′-SL, Significantly Decreases Diarrhea Symptoms
